Structures are written as SMILES.

The experiment relates to HCV genotype 1b replicon. Kind of experiment: HCV replicon assay (1b_Huh-Luc/Neo-ET cell line, luciferase readout). It counts as cell-based. The settings on record: Hepatitis C virus, Huh-7, 72 h, read-out: Inhibition of HCV genotype 1b. Here is the method:
Biological activity of the compounds of the invention was determined using an HCV replicon assay. The 1b_Huh-Luc/Neo-ET cell line persistently expressing a bicistronic genotype 1b replicon in Huh 7 cells was obtained from ReBLikon GMBH. This cell line was used to test compound inhibition using luciferase enzyme activity readout as a measurement of compound inhibition of replicon levels.
On Day 1 (the day after plating), each compound is added in triplicate to the cells. Plates incubated for 72 h prior to running the luciferase assay. Enzyme activity was measured using a Bright-Glo Kit (cat. number E2620) manufactured by Promega Corporation. The following equation was used to generate a percent control value for each compound. % Control=(Average Compound Value/Average Control)*100
The EC50 value was determined using GraphPad Prism and the following equation: Y=Bottom+(Top−Bottom)/1+10^((Log IC50−X)*HillSlope))
EC50 values of compounds are repeated several times in the replicon assay.
For orientation: In antiviral work, replicon cells carry a viral genome segment that copies itself.
With `COC(=O)N[C@H](C(=O)N1CCC[C@H]1c1ncc(-c2ccc3cc(-c4ccc(-c5cnc([C@@H]6CCCN6C(=O)[C@H](NC(=O)OC)c6ccccc6)[nH]5)cc4)ccc3c2)[nH]1)[C@@H](C)OC` [compound 115], the EC50 is below 1 nM.

As for `COC(=O)N[C@H](C(=O)N1CCC[C@H]1c1nc(-c2ccc3cc(-c4ccc(-c5cnc([C@@H]6CCCN6C(=O)[C@@H](NC(=O)OC)C6CCOCC6)[nH]5)cc4F)ccc3c2)c[nH]1)C(C)C` [compound 65], the EC50 is below 1 nM.

`COC(=O)N[C@H](C(=O)N1CCC[C@H]1c1ncc(-c2ccc(-c3ccc4cc(-c5c[nH]c([C@@H]6CCCN6C(=O)[C@H](NC(=O)OC)c6ccccc6)n5)cnc4c3)nc2)[nH]1)C(C)C` [compound 60]: the EC50 is below 1 nM.

As to `COC(=O)N[C@H](C(=O)N1CCC[C@H]1c1nc2ccc(-c3ccc4cc(-c5cnc([C@@H]6CCCN6C(=O)[C@@H](NC(=O)OC)C6CCOCC6)[nH]5)ccc4n3)cc2[nH]1)C(C)C` [compound 194], the EC50 is below 1 nM.

Regarding `CNC(=O)N[C@@H](C(=O)N1CCC[C@H]1c1nc(-c2ccc3nc(-c4ccc(-c5cnc([C@@H]6CCCN6C(=O)[C@@H](NC(=O)OC)C(C)C)[nH]5)cc4)ccc3c2)c[nH]1)c1ccccc1` [compound 36], the EC50 is below 1 nM.

As to `COC(=O)N[C@H](C(=O)N1CCC[C@H]1c1ncc(-c2ccc3nc(-c4ccc5nc([C@@H]6CCCN6C(=O)[C@H](NC(=O)OC)c6ccccc6)[nH]c5c4)ccc3c2)[nH]1)C(C)C` [compound 197], the EC50 was below 1 nM.

As for `COC(=O)N[C@@H](C(=O)N1CCC[C@H]1c1nc(-c2ccc3cc(-c4ccc(-c5cnc([C@@H]6CCCN6C(=O)[C@H](NC(=O)OC)C(C)C)[nH]5)cc4)ccc3c2)c[nH]1)C(C)C` [compound 2], the EC50 is below 1 nM.

For the molecule `COC(=O)N[C@H](C(=O)N1CCC[C@H]1c1ncc(-c2ccc(-c3ccc4cc(-c5c[nH]c([C@@H]6CCCN6C(=O)[C@@H](NC(=O)OC)C6CCOCC6)n5)cnc4c3)nc2)[nH]1)C(C)C` [compound 61], the EC50 is below 1 nM.

As to `COC(=O)N[C@H](C(=O)N1CCC[C@H]1c1ncc(-c2ccc3cc(-c4ccc5nc([C@@H]6CCCN6C(=O)[C@@H](NC(=O)OC)C6CCOCC6)[nH]c5n4)ccc3c2)[nH]1)C1CCOCC1` [compound 205], the EC50 was below 1 nM.

Consider `c1cc2nc(C34CCC(c5cnc([C@@H]6CCCN6)[nH]5)(CC3)CC4)ccc2cc1-c1c[nH]c([C@@H]2CCCN2)n1` [compound 267], for which the EC50 was above 1000 nM.

As for `COC(=O)N[C@H](C(=O)N1CCC[C@H]1c1nc2ccc(-c3ccc4cc(-c5cnc([C@@H]6CCCN6C(=O)[C@@H](NC(=O)OC)C6CCOCC6)[nH]5)ccc4c3)nc2[nH]1)C(C)C` [compound 201], the EC50 is below 1 nM.

Take `COC(=O)N[C@@H](C)C(=O)N1CCC[C@H]1c1nc(-c2ccc3nc(C45CCC(c6cnc([C@@H]7CCCN7C(=O)[C@H](C)NC(=O)OC)[nH]6)(CC4)CC5)ccc3c2)c[nH]1` [compound 266]: the EC50 is below 1 nM.

On to `COC(=O)N[C@H](C(=O)N1CCC[C@H]1c1ncc(-c2ccc3nc(-c4ccc(-c5cnc([C@@H]6CCCN6C(=O)[C@H](NC(=O)OC)c6ccccc6)[nH]5)cc4)oc3c2)[nH]1)C(C)C` [compound 255], for which the EC50 was below 1 nM.

As to `COC(=O)N[C@H](C(=O)N1CCC[C@H]1c1ncc(-c2ccc(-c3nc4ccc(-c5cnc([C@@H]6CCCN6C(=O)[C@H](NC(=O)OC(C)(C)C)c6ccccc6)[nH]5)cc4o3)cc2)[nH]1)C(C)C` [compound 247], the EC50 was below 1 nM.

With `COC(=O)N[C@H](C(=O)N1CCC[C@H]1c1nc2ccc(-c3ccc4cc(-c5ccc6nc([C@@H]7CCCN7C(=O)[C@H](NC(=O)OC)c7ccccc7)[nH]c6c5)ccc4c3)cc2[nH]1)C(C)C` [compound 283], the EC50 was below 1 nM.

For the molecule `COC(=O)N[C@H](C(=O)N1CCC[C@H]1c1ncc(-c2ccc3nc(-c4ccc5nc([C@@H]6CCCN6C(=O)[C@@H](NC(=O)OC)C6CCOCC6)[nH]c5c4)ccc3c2)[nH]1)C1CCOCC1` [compound 206], the EC50 is 1 to 9.9 nM.

In the case of `COC(=O)N[C@H](C(=O)N1CCC[C@H]1c1ncc(-c2ccc3cc(-c4ccc5nc([C@@H]6CCCN6C(=O)[C@@H](NC(=O)OC)C6CCOCC6)[nH]c5c4)ccc3c2)[nH]1)C1CCOCC1` [compound 203], the EC50 is below 1 nM.

Consider `COC(=O)N[C@H](C(=O)N1CCC[C@H]1c1nc(-c2ccc3cc(-c4ccc(-c5cnc([C@@H]6CCCN6C(=O)[C@H](NC(=O)OC)c6ccccc6)[nH]5)cc4F)ccc3c2)c[nH]1)C1CCOCC1` [compound 114], for which the EC50 is below 1 nM.

Take `COC(=O)N[C@@H](C(=O)N1CCC[C@H]1c1nc(-c2ccc3nc(-c4ccc(-c5cnc([C@@H]6CCCN6C(=O)[C@H](NC(=O)OC)c6ccccc6)[nH]5)nc4)ccc3c2)c[nH]1)c1ccccc1` [compound 54]: the EC50 was below 1 nM.

As for `COC(=O)N[C@H](C(=O)N1CCC[C@H]1c1ncc(-c2ccc3nc(-c4ccc(-c5cnc([C@@H]6CCCN6C(=O)[C@H](NC(=O)OC(C)(C)C)c6ccccc6)[nH]5)cc4F)ccc3c2)[nH]1)C1CCOCC1` [compound 135], the EC50 is below 1 nM.

In the case of `COC(=O)N[C@H](C(=O)N1CCC[C@H]1c1nc2ccc(-c3cc4ccc(-c5cnc([C@@H]6CCCN6C(=O)[C@@H](NC(=O)OC)C6CCOCC6)[nH]5)cc4cn3)cc2[nH]1)C(C)C` [compound 216], the EC50 is below 1 nM.

Take `COC(=O)N[C@H](C(=O)N1CCC[C@H]1c1ncc(-c2ccc3cc(-c4ccc5nc([C@@H]6CCCN6C(=O)[C@@H](c6ccccc6)N(C)C)[nH]c5c4)ccc3c2)[nH]1)C(C)C` [compound 177]: the EC50 is below 1 nM.

Take `CNC(=O)N[C@@H](C(=O)N1CCC[C@H]1c1ncc(-c2ccc(-c3nc4ccc(-c5cnc([C@@H]6CCCN6C(=O)[C@@H](NC(=O)OC)C(C)C)[nH]5)cc4o3)cc2)[nH]1)c1ccccc1` [compound 256]: the EC50 was below 1 nM.

With `COC(=O)N[C@H](C(=O)N1CCC[C@H]1c1ncc(-c2cnc3cc(-c4ccc5nc([C@@H]6CCCN6C(=O)[C@@H](NC(=O)OC)C(C)C)[nH]c5c4)ccc3c2)[nH]1)C(C)C` [compound 187], the EC50 was below 1 nM.

Regarding `COC(=O)N[C@H](C(=O)N1CCC[C@H]1c1nc(-c2cnc3cc(-c4ccc(-c5cnc([C@@H]6CCCN6C(=O)[C@H](NC(=O)OC6CCOCC6)c6ccccc6)[nH]5)cc4)ccc3c2)c[nH]1)C1CCOCC1` [compound 89], the EC50 was below 1 nM.

`COC(=O)N[C@H](C(=O)N1CCC[C@H]1c1nc(-c2ccc3cc(-c4ccc(-c5cnc([C@@H]6CCCN6C(=O)[C@@H](NC(=O)OC)C(C)C)[nH]5)cc4)ncc3c2)c[nH]1)C(C)C` [compound 22]: the EC50 was below 1 nM.

`COC(=O)N[C@H](C(=O)N1CCC[C@H]1c1nc(-c2cnc3cc(-c4ccc(-c5cnc([C@@H]6CCCN6C(=O)[C@H](NC(=O)OC6CCOCC6)c6ccccc6)[nH]5)cc4)ccc3c2)c[nH]1)C(C)C` [compound 88]: the EC50 was below 1 nM.

For the molecule `COC(=O)N[C@H](C(=O)N1CCC[C@H]1c1nc(-c2ccc3nc(-c4ccc(-c5cnc([C@@H]6CCCN6C(=O)[C@@H](NC(=O)OC)C6CCOCC6)[nH]5)cc4F)ccc3c2)c[nH]1)C1CCOCC1` [compound 98], the EC50 is below 1 nM.

As to `COC(=O)N[C@H](C(=O)N1CCC[C@H]1c1ncc(-c2ccc(-c3ccc4cc(-c5c[nH]c([C@@H]6CCCN6C(=O)[C@@H](NC(=O)OC)[C@@H](C)OC)n5)ccc4n3)cc2)[nH]1)C(C)C` [compound 40], the EC50 is below 1 nM.

Source of the values: US8618151B2, “Inhibitors of HCV NS5A” (Presidio Pharmaceuticals, Inc., priority 2008, dated 2013).
